Measurements reported in patent US9428439B2, “Hydrobenzamide derivatives as inhibitors of Hsp90” (priority 2006, dated 2016).
“Also recorded” adds a separate entry of the source. Where two headings read alike, the source gives them in different places. Values belong to the compound of their own block, whether it stands above or below them.

Columns and labels:
Assay type in all cases: physicochemical
Rate of solubility = details: compared with the free base and other salts tested
Hygroscopicity = assay: Hygroscopicity
[1] = Solid-state stability of crystalline forms (XRPD); details: for stability in air: XRPD
Source text: Samples for X-ray powder diffraction (XRPD) data collection were gently ground by marble mortar and loaded into a crystallographic capillary (from Hampton Research, Quartz or Glass Type 10, 0.4 or 0.7 mm diameter). Diffraction patterns were collected at room temperature using CuKα radiation (λ=1.5418 Å) from a Rigaku rotating anode RU3HR, Osmic blue confocal optics, ¼ c goniometer and a Rigaku HTC image plate detector. 2D Images were collected while spinning φ axis with a detector to crystal distance of 250 mm. Data collection was controlled by CrystalClear software and 2D images were converted to 1D plot (2θ vs. Intensity) by Datasqueeze (intensity averaged over the azimuthal angle 0≦χ≦360° for […] 3-30° in 0.02° steps). In house program AstexXRPD was used for manipulation and visualisation of 1D XRPD patterns.

SMILES: CC(C)c1cc(C(=O)N2Cc3ccc(CN4CCN(C)CC4)cc3C2)c(O)cc1O.C[C@H](O)C(=O)O [(2,4-dihydroxy-5-isopropyl-phenyl)-[5-(4-methyl-piperazin-1-ylmethyl)-1,3-dihydro-isoindol-2-yl]-methanone L-lactate salt]
rate of solubility (Rate of solubility): better rate of solubility than the free base and other salts tested
hygroscopicity (Hygroscopicity): non-hygroscopic

SMILES: CC(C)c1cc(C(=O)N2Cc3ccc(CN4CCN(C)CC4)cc3C2)c(O)cc1O [Form FB1, (2,4-dihydroxy-5-isopropyl-phenyl)-[5-(4-methyl-piperazin-1-ylmethyl)-1,3-dihydro-isoindol-2-yl]-methanone]
stability in air ([1]; listed as FB1): unstable in air and converts to form FB3; also recorded: converted completely to crystal form FB3

SMILES: CC(C)c1cc(C(=O)N2Cc3ccc(CN4CCN(C)CC4)cc3C2)c(O)cc1O [Form FB2, (2,4-dihydroxy-5-isopropyl-phenyl)-[5-(4-methyl-piperazin-1-ylmethyl)-1,3-dihydro-isoindol-2-yl]-methanone]
stability in air ([1]; listed as FB2): unstable in air and converts to form FB3; also recorded: changed to crystal form FB3

SMILES: CC(C)c1cc(C(=O)N2Cc3ccc(CN4CCN(C)CC4)cc3C2)c(O)cc1O [Form FB3, (2,4-dihydroxy-5-isopropyl-phenyl)-[5-(4-methyl-piperazin-1-ylmethyl)-1,3-dihydro-isoindol-2-yl]-methanone]
stability at 40° C. and 75% RH [1]: stable in air at 40 °C and in 75% relative humidity for at least one month; also recorded: stable in air and at 40 °C and 75% RH for at least one month
stability in air ([1]; listed as FB3): stable in air

SMILES: CC(C)c1cc(C(=O)N2Cc3ccc(CN4CCN(C)CC4)cc3C2)c(O)cc1O [Form FB4, (2,4-dihydroxy-5-isopropyl-phenyl)-[5-(4-methyl-piperazin-1-ylmethyl)-1,3-dihydro-isoindol-2-yl]-methanone]
stability of the crystalline form (stable / unstable form) [1]: stable
stability in air ([1]; listed as FB4): stable in air

SMILES: CC(C)c1cc(C(=O)N2Cc3ccc(CN4CCN(C)CC4)cc3C2)c(O)cc1O [Form FB5, (2,4-dihydroxy-5-isopropyl-phenyl)-[5-(4-methyl-piperazin-1-ylmethyl)-1,3-dihydro-isoindol-2-yl]-methanone]
stability in air ([1]; listed as FB5): unstable in air; also recorded: transforms to FB6 in air; also recorded: conversion to form FB6

SMILES: CC(C)c1cc(C(=O)N2Cc3ccc(CN4CCN(C)CC4)cc3C2)c(O)cc1O [Form FB6, (2,4-dihydroxy-5-isopropyl-phenyl)-[5-(4-methyl-piperazin-1-ylmethyl)-1,3-dihydro-isoindol-2-yl]-methanone]
stability in air ([1]; listed as FB6): stable in air; also recorded: stable on air

SMILES: CC(C)c1cc(C(=O)N2Cc3ccc(CN4CCN(C)CC4)cc3C2)c(O)cc1O.Cl [Form FH1, (2,4-dihydroxy-5-isopropyl-phenyl)-[5-(4-methyl-piperazin-1-ylmethyl)-1,3-dihydro-isoindol-2-yl]-methanone hydrochloride salt]
hygroscopicity (Hygroscopicity): very hygroscopic and dissolves in air moisture
stability in air ([1]; listed as FH1, hydrochloride salt): unstable in air

SMILES: CC(C)c1cc(C(=O)N2Cc3ccc(CN4CCN(C)CC4)cc3C2)c(O)cc1O.Cl [Form FH2, (2,4-dihydroxy-5-isopropyl-phenyl)-[5-(4-methyl-piperazin-1-ylmethyl)-1,3-dihydro-isoindol-2-yl]-methanone hydrochloride salt]
stability in air ([1]; listed as FH2, hydrochloride salt): unstable in air; also recorded: transforms on air into form FH3; also recorded: conversion to form FH3

SMILES: CC(C)c1cc(C(=O)N2Cc3ccc(CN4CCN(C)CC4)cc3C2)c(O)cc1O.Cl [Form FH3, (2,4-dihydroxy-5-isopropyl-phenyl)-[5-(4-methyl-piperazin-1-ylmethyl)-1,3-dihydro-isoindol-2-yl]-methanone hydrochloride salt]
stability at 40° C. and 75% RH [1]: stable in air and at 40 °C and 75% RH for at least one month
stability in air ([1]; listed as FH3, hydrochloride salt): stable in air

Now from value to compound, other results behind:

stability in air ([1]; listed as FH4, hydrochloride salt): unstable and disintegrates in air
SMILES: CC(C)c1cc(C(=O)N2Cc3ccc(CN4CCN(C)CC4)cc3C2)c(O)cc1O.Cl [Form FH4, (2,4-dihydroxy-5-isopropyl-phenyl)-[5-(4-methyl-piperazin-1-ylmethyl)-1,3-dihydro-isoindol-2-yl]-methanone hydrochloride salt]

stability in air ([1]; listed as FH5, hydrochloride salt): unstable and dissolves in moist air
SMILES: CC(C)c1cc(C(=O)N2Cc3ccc(CN4CCN(C)CC4)cc3C2)c(O)cc1O.Cl [Form FH5, (2,4-dihydroxy-5-isopropyl-phenyl)-[5-(4-methyl-piperazin-1-ylmethyl)-1,3-dihydro-isoindol-2-yl]-methanone hydrochloride salt]

stability in air ([1]; listed as FL): stable in air
stability of the crystalline form (stable / unstable form) ([1]; listed as FL1): stable forms
SMILES: CC(C)c1cc(C(=O)N2Cc3ccc(CN4CCN(C)CC4)cc3C2)c(O)cc1O.C[C@H](O)C(=O)O [Form FL1, (2,4-dihydroxy-5-isopropyl-phenyl)-[5-(4-methyl-piperazin-1-ylmethyl)-1,3-dihydro-isoindol-2-yl]-methanone L-lactate salt]
stability at 40° C. and 75% RH [1]: stable in air and at 40 °C and 75% RH for at least one month

stability in air ([1]; listed as FL2): stable in air
stability of the crystalline form (stable / unstable form) ([1]; listed as FL2): stable forms
SMILES: CC(C)c1cc(C(=O)N2Cc3ccc(CN4CCN(C)CC4)cc3C2)c(O)cc1O.C[C@H](O)C(=O)O [Form FL2, (2,4-dihydroxy-5-isopropyl-phenyl)-[5-(4-methyl-piperazin-1-ylmethyl)-1,3-dihydro-isoindol-2-yl]-methanone L-lactate salt]

stability of the crystalline form (stable / unstable form) ([1]; listed as FL3): unstable form
SMILES: CC(C)c1cc(C(=O)N2Cc3ccc(CN4CCN(C)CC4)cc3C2)c(O)cc1O.C[C@H](O)C(=O)O [Form FL3, (2,4-dihydroxy-5-isopropyl-phenyl)-[5-(4-methyl-piperazin-1-ylmethyl)-1,3-dihydro-isoindol-2-yl]-methanone L-lactate salt]
stability in air ([1]; listed as FL3): transforms in air into form FL1; also recorded: conversion to form FL1

stability of the crystalline form (stable / unstable form) ([1]; listed as FS1, sulphate salt): unstable forms
SMILES: CC(C)c1cc(C(=O)N2Cc3ccc(CN4CCN(C)CC4)cc3C2)c(O)cc1O.O=S(=O)(O)O [Form FS1, (2,4-dihydroxy-5-isopropyl-phenyl)-[5-(4-methyl-piperazin-1-ylmethyl)-1,3-dihydro-isoindol-2-yl]-methanone sulphate salt]
stability in air ([1]; listed as FS1, sulphate salt): unstable on air and transforms to form FS3

stability at 40° C. and 75% RH ([1]; listed as FS2, sulphate salt): transforms to form FS4
stability of the crystalline form (stable / unstable form) ([1]; listed as FS2, sulphate salt): unstable forms
SMILES: CC(C)c1cc(C(=O)N2Cc3ccc(CN4CCN(C)CC4)cc3C2)c(O)cc1O.O=S(=O)(O)O [Form FS2, (2,4-dihydroxy-5-isopropyl-phenyl)-[5-(4-methyl-piperazin-1-ylmethyl)-1,3-dihydro-isoindol-2-yl]-methanone sulphate salt]
stability in air ([1]; listed as FS2, sulphate salt): unstable on air and transforms to form FS5

stability of the crystalline form (stable / unstable form) ([1]; listed as FS3, sulphate salt): stable form
SMILES: CC(C)c1cc(C(=O)N2Cc3ccc(CN4CCN(C)CC4)cc3C2)c(O)cc1O.O=S(=O)(O)O [Form FS3, (2,4-dihydroxy-5-isopropyl-phenyl)-[5-(4-methyl-piperazin-1-ylmethyl)-1,3-dihydro-isoindol-2-yl]-methanone sulphate salt]

stability of the crystalline form (stable / unstable form) ([1]; listed as FS4, sulphate salt): stable form
SMILES: CC(C)c1cc(C(=O)N2Cc3ccc(CN4CCN(C)CC4)cc3C2)c(O)cc1O.O=S(=O)(O)O [Form FS4, (2,4-dihydroxy-5-isopropyl-phenyl)-[5-(4-methyl-piperazin-1-ylmethyl)-1,3-dihydro-isoindol-2-yl]-methanone sulphate salt]
stability in a dry environment ([1]; 20° C., 11% RH): transformation of form FS4 in a dry environment

stability of the crystalline form (stable / unstable form) ([1]; listed as FS5, sulphate salt): stable forms
stability of the crystalline form (stable / unstable form) ([1]; listed as FS53, sulphate salt): stable form
SMILES: CC(C)c1cc(C(=O)N2Cc3ccc(CN4CCN(C)CC4)cc3C2)c(O)cc1O.O=S(=O)(O)O [Form FS5, (2,4-dihydroxy-5-isopropyl-phenyl)-[5-(4-methyl-piperazin-1-ylmethyl)-1,3-dihydro-isoindol-2-yl]-methanone sulphate salt]

stability at 40° C. and 75% RH ([1]; listed as FS6, sulphate salt): transforms into form FS3
stability in air ([1]; listed as FS6, sulphate salt): stable in air
stability of the crystalline form (stable / unstable form) ([1]; listed as FS6, sulphate salt): stable forms
SMILES: CC(C)c1cc(C(=O)N2Cc3ccc(CN4CCN(C)CC4)cc3C2)c(O)cc1O.O=S(=O)(O)O [Form FS6, (2,4-dihydroxy-5-isopropyl-phenyl)-[5-(4-methyl-piperazin-1-ylmethyl)-1,3-dihydro-isoindol-2-yl]-methanone sulphate salt]
